Paper PMC6222558, “Synthesis and Evolution of Berberine Derivatives as a New Class of Antiviral Agents against Enterovirus 71 through the MEK/ERK Pathway and Autophagy” (Molecules : A Journal of Synthetic Chemistry and Natural …, 2018)
Where a name gives a salt, the structure may show the parent alone.

Key:
[1] = system: Vero cells; experiment: Cytotoxicity assay (CCK) in Vero cells; format: cell-based, African green monkey; details: Vero cells; calculated on the organic part; n = 3
Procedure: (§1) Vero cells were purchased from the American Type Culture Collection (ATCC, […], MD, USA), and were cultured in Minimum Essential Medium (MEM) supplemented with 10% fetal bovine serum (FBS) (GIBCO, Grand Island, NY, USA) and antibiotics (100 U/mL penicillin and […] streptomycin) at 37 °C in a 5% CO2 incubator. EV71 strain SHZH98 isolated from the throat swab sample of an HFMD case occurring in 1998 in China was kindly provided by Dr. Qi Jin (Institute of Pathogen Biology, Chinese Academy of Medical Science and Peking Union Medical School, Beijing, China), and JS-52 strain was a kind gift from Dr. Xiangzhong Ye (Beijing Wantai Biological Pharmacy Enterprise Co., Ltd., Beijing, China). The EV71 BrCr and H strains were purchased from the ATCC. All of EV71 strains were passaged in Vero cells.
Cytotoxicity of all target compounds in Vero cells was analyzed by CCK (TransGen Biotech, Beijing, China) assay. In brief, cells in exponential phase (3 × 10^4 cells/well) were seeded into 96-well culture plates and incubated overnight. Then, the medium was removed and different concentrations of all target compounds were applied in duple. After 48 h incubation, the cytotoxicity of all target compounds was determined by CCK assay. The signals were read at 450 nm on Enspire (Perkin Elmer, Waltham, MA, USA). The TC50 was defined as the concentration that inhibits 50% cellular growth in comparison with the controls. It is calculated by the Reed and Muench method.

[2] = system: EV71 SHZH98 strain (genotype C4); experiment: CPE inhibition assay for anti-EV71, SHZH98 strain; format: cell-based, enterovirus 71 (EV71); details: Enterovirus A, EV71; Vero cells; CPE; calculated on the organic part; n = 3; read-out: SHZH98 Strain IC50
Procedure: (§2) Thus, all newly synthesized BBR analogues were screened for their anti-EV71 potencies in African green monkey kidney (Vero) cells taking BBR as the positive control. EV71 strains used in the present study include different genotype strains, such as H strain (VR-1432, genotype C2), BrCr strain (VR-1775, genotype A), and JS-52 and SHZH98 (genotype C4). The potency against EV71 strains above mentioned of each tested compound was evaluated by the combination of its IC50 and selectivity index (SI) value as the important therapeutic indication.
as §1
(§3) The anti-EV71 activities of all tested compounds were detected by the virus-induced CPE assay. Briefly, cells (3 × 10^4 cells/well) were plated into 96-well culture plates and incubated for 16 h. Then, remove the medium and infected cells with EV71 of 100 × TCID50 (50% tissue culture infective doses) in serum-free medium for 1 h at 37 °C. After that, the unbound viruses were removed and various concentrations of tested compounds were supplemented for incubation of another 72 h. […] TC50 defined as the concentration that leads to the 50% of CPE which determined by the same method in 72 h. In addition, the cells were stained the cells were colored with 0.5% crystal violet in 20% ethanol for 15 min at room temperature and the cells were imaged after rinsed with PBS.

[3] = system: EV71 BrCr strain (VR-1775, genotype A); experiment: CPE inhibition assay for anti-EV71, BrCr strain; format: cell-based, enterovirus 71 (EV71); details: Enterovirus A, EV71; Vero cells; CPE; calculated on the organic part; n = 3; read-out: BrCr Strain IC50
Procedure: as §2, §1, §3

[4] = system: EV71 JS-52 strain (genotype C4); experiment: CPE inhibition assay for anti-EV71, JS-52 strain; format: cell-based, enterovirus 71 (EV71); details: Enterovirus A, EV71; Vero cells; CPE; calculated on the organic part; n = 3; read-out: JS-52 Strain IC50
Procedure: as §2, §1, §3

[5] = system: MEK/ERK signaling pathway; parameters: method as in PMID 28081706; details: cited from earlier work
[6] = system: four different genotype enterovirus 71 (EV71) strains; experiment: CPE assay, summary over the four EV71 strains; format: cell-based; details: Enterovirus A, EV71, read-out: IC50 (Figure 1)
Procedure: as §2, §3

[7] = system: EV71 H strain (VR-1432, genotype C2); experiment: CPE inhibition assay for anti-EV71, H strain; format: cell-based, enterovirus 71 (EV71); details: Enterovirus A, EV71; Vero cells; CPE; calculated on the organic part; n = 3; read-out: H Strain IC50
Procedure: as §2, §1, §3

## COc1cccc(C(=O)COc2cc3c(cc2OC)-c2cc4ccc(OC)c(OC)c4c[n+]2CC3)c1 (as salt: chloride) [5e, 2,9,10-Trimethoxy-3-m-methoxyphenylformylmethylenoxy protoberberine chloride]
other
  melting point: 218 to 220 °C

## COc1cc2c(cc1OCC(=O)c1ccc(C(F)(F)F)cc1)CC[n+]1cc3c(OC)c(OC)ccc3cc1-2 (as salt: chloride) [5f, 2,9,10-Trimethoxy-3-p-trifloromethylphenylformylmethylenoxy protober berine chloride]
other
  melting point: 213 to 215 °C

## COc1cc2c(cc1OC(=O)OCc1ccccc1)CC[n+]1cc3c(OC)c(OC)ccc3cc1-2 (as salt: chloride) [5g, 2,9,10-Trimethoxy-3-benzyloxyformyloxy protoberberine chloride]
other
  melting point: 140 to 142 °C

## COc1ccc2cc3[n+](cc2c1OC)CCc1cc2c(cc1-3)OCO2 [BBR, berberine]
[1]
  TC50 (median toxic concentration): 147 µM
[2]
  IC50: 28.2 µM
[3]
  IC50: 9.45 µM
[4]
  IC50: 14 µM
[5]
  phosphorylation of MEK/ERK induced by EV71 infection: could inhibit the phosphorylation of MEK/ERK
[6]
  IC50: 8.55 to 25.5 µM
[7]
  IC50: 21.2 µM
